Data taken from US8481561B2, “Classes of GABAA/BZR ligands” (Innovationspatent Sverige AB, priority 2008, dated 2013).

Tests used:
benzodiazepine receptor = assay: Displacement of 3H-flumazenil binding in rat cortical tissue (receptor binding); conditions: 3H-Flumazenil binding in vitro, rat cortical membranes; mean of three determinations
Experimental: Affinity of test substances for the benzodiazepine receptor was determined in vitro by displacement of ^3H-flumazenil in rat cortical tissue.

SMILES	melting point	Ki (benzodiazepine receptor)
Cc1ccc(-c2nsc3[nH]c4ccc(Br)cc4c(=O)c23)cc1 [Compound 24, 6-Bromo-3-(4-methylphenyl)isothiazolo[5,4-b]quinolin-4(9H)-one]	331 °C	2.9 nM
COc1ccc(-c2nsc3[nH]c4ccc(C)cc4c(=O)c23)cc1 [Compound 22, 3-(4-Methoxyphenyl)-6-methylisothiazolo[5,4-b]quinolin-4(9H)-one]		2 nM
Cc1ccc2[nH]c3onc(-c4ccccc4)c3c(=O)c2c1 [Compound 26, 6-Methyl-3-phenyl-isoxazolo[5,4-b]quinolin-4(9H)-one]		18 nM
Cc1ccc(-c2nsc3[nH]c4ccc(C)cc4c(=O)c23)cc1 [Compound 19, 6-Methyl-3-(4-methylphenyl)isothiazolo[5,4-b]quinolin-4(9H)-one]	330 °C	1.9 nM
Cc1ccc2[nH]c3snc(-c4ccc(Br)cc4)c3c(=O)c2c1 [Compound 21, 3-(4-Bromophenyl)-6-methylisothiazolo[5,4-b]quinolin-4(9H)-one]	357 °C	5.3 nM
Cc1ccc2[nH]c3snc(-c4ccc([N+](=O)[O-])cc4)c3c(=O)c2c1 [Compound 23, 6-Methyl-3-(4-nitrophenyl)-isothiazolo[5,4-b]quinolin-4(9H)-one]	343 °C	5.5 nM
CCCC(=O)Nc1nsc2[nH]c3ccc(C)cc3c(=O)c12 [Compound 31, N-(6-methyl-4-oxo-4,9-dihydroisothiazolo[5,4-b]quinolin-3-yl)butanamide]		2 nM
